Experimental data as given in PubChem BioAssay (NCI).
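Dose response: 5 concentrations. Exposure: 48 h. Format: 96-well plates. Endpoint: linear interpolation; highest concentration if not reached. TGI is the concentration that stops growth completely.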

Columns and labels:
Assay in all cases: DTP human tumour cell line panel, 48 h
[1] = tested on: A549 NSCLC
[2] = tested on: UACC-62 melanoma
[3] = tested on: CAKI-1 renal
[4] = tested on: 786-0 renal
[5] = tested on: SNB-75 CNS
[6] = tested on: SF-295 CNS
[7] = tested on: T-47D breast
[8] = tested on: M14 melanoma
[9] = tested on: OVCAR-4 ovarian
[10] = tested on: KM12 colon
[11] = tested on: SN12C renal
[12] = tested on: MDA-N
[13] = tested on: SK-MEL-5 melanoma
[14] = tested on: SF-268 CNS
[15] = tested on: SK-MEL-2 melanoma
[16] = tested on: IGROV1 ovarian
[17] = tested on: HL-60(TB) leukemia
[18] = tested on: HT29 colon
[19] = tested on: HOP-92 NSCLC
[20] = tested on: CCRF-CEM leukemia
[21] = tested on: MALME-3M melanoma
[22] = tested on: MCF7 breast
[23] = tested on: HOP-62 NSCLC
[24] = tested on: HCC-2998 colon
[25] = tested on: HCT-15 colon
[26] = tested on: UACC-257 melanoma
[27] = tested on: U251 CNS
[28] = tested on: TK-10 renal
[29] = tested on: PC-3 prostate
[30] = tested on: SW-620 colon
[31] = tested on: MOLT-4 leukemia
[32] = tested on: DU-145 prostate
[33] = tested on: SNB-19 CNS
[34] = tested on: RPMI-8226 leukemia
[35] = tested on: SK-MEL-28 melanoma
[36] = tested on: NCI-H460 lung
[37] = tested on: OVCAR-8 ovarian
[38] = tested on: HCT-116 colon
[39] = tested on: NCI-H226 lung
[40] = tested on: BT-549 breast
[41] = tested on: COLO 205 colon
[42] = tested on: ACHN renal
[43] = tested on: OVCAR-3 ovarian
[44] = tested on: RXF 393 renal
[45] = tested on: NCI-H23 lung
[46] = tested on: UO-31 renal
[47] = tested on: A498 renal
[48] = tested on: NCI-H522 lung
[49] = tested on: NCI/ADR-RES ovarian
[50] = tested on: K-562 leukemia
[51] = tested on: LOX IMVI melanoma
[52] = tested on: EKVX NSCLC
[53] = tested on: SF-539 CNS
[54] = tested on: SR leukemia
[55] = tested on: MDA-MB-435
[56] = tested on: OVCAR-5 ovarian
[57] = tested on: SK-OV-3 ovarian
[58] = tested on: HS 578T breast
[59] = tested on: MDA-MB-231 breast

COc1ccc(/C=N/c2nc3cc4sc(/N=C/c5ccc(OC)cc5)nc4cc3s2)cc1
TGI [1]: > 100 µM | TGI [2]: > 100 µM | TGI [3]: > 100 µM | TGI [4]: > 100 µM | TGI [5]: > 100 µM | TGI [6]: > 100 µM | TGI [7]: > 100 µM | TGI [8]: > 100 µM | TGI [9]: > 100 µM | TGI [10]: > 100 µM | TGI [11]: > 100 µM | TGI [12]: > 100 µM | TGI [13]: > 100 µM | TGI [14]: > 100 µM | TGI [15]: > 100 µM | TGI [16]: > 100 µM | TGI [17]: > 100 µM | TGI [18]: > 100 µM | TGI [19]: > 100 µM | TGI [20]: > 45.2 µM | TGI [21]: > 100 µM | TGI [22]: > 88.9 µM | TGI [23]: > 100 µM | TGI [24]: 71.4 µM | TGI [25]: > 100 µM | TGI [26]: > 100 µM | TGI [27]: > 100 µM | TGI [28]: > 94.8 µM | TGI [29]: > 100 µM | TGI [30]: > 100 µM | TGI [31]: > 100 µM | TGI [32]: > 100 µM | TGI [33]: > 100 µM | TGI [34]: > 100 µM | TGI [35]: > 100 µM | TGI [36]: > 100 µM | TGI [37]: > 100 µM | TGI [38]: > 100 µM | TGI [39]: > 77.8 µM | TGI [40]: > 100 µM | TGI [41]: > 22.4 µM | TGI [42]: > 100 µM | TGI [43]: > 100 µM | TGI [44]: > 100 µM | TGI [45]: 97.7 µM | TGI [46]: > 100 µM | TGI [47]: > 100 µM | TGI [48]: > 52.7 µM | TGI [49]: > 100 µM | TGI [50]: > 100 µM | TGI [51]: > 100 µM | TGI [52]: > 100 µM | TGI [53]: > 100 µM | TGI [54]: > 100 µM | TGI [55]: 99.5 µM | TGI [56]: > 100 µM | TGI [57]: > 100 µM | TGI [58]: > 81.8 µM | TGI [59]: > 100 µM

CC1=NN(c2nc(N)nc(C(C#N)C(=O)c3cc4c(cc3Cl)Sc3nccn3S4(=O)=O)n2)C(C)(C)C1 (stereo unspecified)
TGI [1]: > 100 µM | TGI [2]: 66.9 µM | TGI [3]: > 100 µM | TGI [4]: 34 µM | TGI [5]: > 100 µM | TGI [6]: > 100 µM | TGI [7]: 77.9 µM | TGI [8]: > 100 µM | TGI [9]: > 100 µM | TGI [10]: > 100 µM | TGI [11]: > 100 µM | TGI [12]: > 100 µM | TGI [13]: 48.1 µM | TGI [14]: > 100 µM | TGI [15]: 53.7 µM | TGI [16]: > 100 µM | TGI [17]: 61.1 µM | TGI [18]: > 100 µM | TGI [19]: > 100 µM | TGI [20]: 50.3 µM | TGI [21]: 48.5 µM | TGI [22]: > 100 µM | TGI [23]: > 100 µM | TGI [24]: 33.8 µM | TGI [25]: 67.3 µM | TGI [26]: 48.5 µM | TGI [27]: > 100 µM | TGI [28]: > 100 µM | TGI [29]: > 100 µM | TGI [30]: > 100 µM | TGI [31]: 68.2 µM | TGI [32]: 94.4 µM | TGI [33]: > 100 µM | TGI [34]: 63.2 µM | TGI [35]: > 100 µM | TGI [36]: > 100 µM | TGI [37]: > 100 µM | TGI [38]: > 100 µM | TGI [39]: 90 µM | TGI [40]: 98.6 µM | TGI [41]: > 100 µM | TGI [42]: > 100 µM | TGI [43]: 57 µM | TGI [44]: > 100 µM | TGI [45]: 37.2 µM | TGI [46]: 67.2 µM | TGI [47]: > 100 µM | TGI [48]: 69.7 µM | TGI [49]: > 100 µM | TGI [50]: > 100 µM | TGI [51]: > 100 µM | TGI [52]: > 100 µM | TGI [53]: > 100 µM | TGI [54]: 25 µM | TGI [55]: > 100 µM | TGI [56]: > 100 µM | TGI [57]: 51.4 µM | TGI [58]: > 100 µM | TGI [59]: 55 µM

C1CSCCCSCCCSCCCSCCCSC1
TGI [1]: > 100 µM | TGI [2]: > 100 µM | TGI [3]: 48.8 µM | TGI [4]: > 100 µM | TGI [5]: > 93.2 µM | TGI [6]: > 100 µM | TGI [7]: > 88.6 µM | TGI [8]: > 100 µM | TGI [9]: > 100 µM | TGI [10]: > 100 µM | TGI [11]: > 100 µM | TGI [12]: > 100 µM | TGI [13]: 28.3 µM | TGI [14]: > 100 µM | TGI [15]: > 95.4 µM | TGI [16]: > 87.1 µM | TGI [17]: 36.5 µM | TGI [18]: > 63.2 µM | TGI [19]: > 93.4 µM | TGI [20]: 32.4 µM | TGI [21]: > 100 µM | TGI [22]: > 76.7 µM | TGI [23]: > 100 µM | TGI [24]: > 100 µM | TGI [25]: > 100 µM | TGI [26]: 97.2 µM | TGI [27]: > 100 µM | TGI [28]: > 100 µM | TGI [29]: > 90.2 µM | TGI [30]: > 100 µM | TGI [31]: 38.1 µM | TGI [32]: > 100 µM | TGI [33]: > 100 µM | TGI [34]: 36.9 µM | TGI [35]: > 100 µM | TGI [36]: > 51.4 µM | TGI [37]: > 100 µM | TGI [38]: > 100 µM | TGI [39]: > 77.2 µM | TGI [40]: > 88.5 µM | TGI [41]: 34.5 µM | TGI [42]: > 100 µM | TGI [43]: > 100 µM | TGI [44]: > 100 µM | TGI [45]: > 100 µM | TGI [46]: > 100 µM | TGI [47]: > 78.1 µM | TGI [48]: 81.2 µM | TGI [49]: > 100 µM | TGI [50]: > 80 µM | TGI [51]: 61.3 µM | TGI [52]: > 100 µM | TGI [53]: > 100 µM | TGI [54]: 29.5 µM | TGI [55]: > 100 µM | TGI [56]: > 100 µM | TGI [57]: > 100 µM | TGI [58]: > 100 µM | TGI [59]: > 88.4 µM

Cc1cc2[nH]c(Cl)c(/C=C3\C(=O)Nc4ccccc43)c2cc1O
TGI [1]: 21.6 µM | TGI [2]: 9.08 µM | TGI [3]: 19.7 µM | TGI [4]: > 37.8 µM | TGI [5]: 16.5 µM | TGI [6]: 11.3 µM | TGI [7]: > 56.9 µM | TGI [8]: 17 µM | TGI [9]: 25.9 µM | TGI [10]: 17.1 µM | TGI [11]: 12.2 µM | TGI [12]: 1.97 µM | TGI [13]: 12.3 µM | TGI [14]: 18.2 µM | TGI [15]: 12.9 µM | TGI [16]: 10.9 µM | TGI [17]: 6.16 µM | TGI [18]: 19.5 µM | TGI [19]: 22.8 µM | TGI [20]: 9.32 µM | TGI [21]: 16.3 µM | TGI [22]: 16.5 µM | TGI [23]: 25.9 µM | TGI [24]: 16 µM | TGI [25]: 23.3 µM | TGI [26]: 23.6 µM | TGI [27]: 14.4 µM | TGI [28]: 23.5 µM | TGI [29]: 12.8 µM | TGI [30]: 30.7 µM | TGI [31]: 32.9 µM | TGI [32]: 12.9 µM | TGI [33]: 17.2 µM | TGI [34]: 9.95 µM | TGI [35]: 24.2 µM | TGI [36]: 15 µM | TGI [37]: 25.8 µM | TGI [38]: > 36.7 µM | TGI [39]: 4.31 µM | TGI [40]: 25 µM | TGI [41]: 30.1 µM | TGI [42]: 21.6 µM | TGI [43]: 26.7 µM | TGI [44]: 9.66 µM | TGI [45]: 10.5 µM | TGI [46]: 17.8 µM | TGI [47]: 16.1 µM | TGI [48]: 4.66 µM | TGI [49]: > 48.9 µM | TGI [50]: 18.8 µM | TGI [51]: 40 µM | TGI [52]: 18 µM | TGI [53]: 4.6 µM | TGI [54]: 4.17 µM | TGI [55]: 1.18 µM | TGI [56]: 20.1 µM | TGI [57]: 19 µM | TGI [58]: > 100 µM | TGI [59]: 15.9 µM
